According to patent US10512268B2, “Herbicidal compounds” (Syngenta Participations AG, priority 2015, dated 2019):

Columns and labels:
Format in all cases: in vivo
[1] = tested on: Amaranthus retoflexus (AMARE); assay: Further testing, post-emergence application; details: 1000 g/h, after 13 days
Procedure: (§1) Seeds of a variety of test species are sown in standard soil in pots (Lolium perenne (LOLPE), Solanum nigrum (SOLNI), Amaranthus retoflexus (AMARE), Setaria faberi (SETFA), Echinochloa crus-galli (ECHCG), Ipomoea hederacea (IPOHE)). After cultivation for one day (pre-emergence) or after 8 days cultivation (post-emergence) under controlled conditions in a glasshouse (at 24/16° C., day/night; 14 hours light; 65% humidity), the plants are sprayed with an aqueous spray solution derived from the formulation of the technical active ingredient in acetone/water (50:50) solution containing 0.5% Tween 20 (polyoxyethelyene sorbitan monolaurate, CAS RN 9005-64-5). Compounds are applied at 1000 g/h unless otherwise stated. The test plants are then grown in a glasshouse under controlled conditions in a glasshouse (at 24/16° C., day/night; 14 hours light; 65% humidity) and watered twice daily. After 13 days for pre and post-emergence, the test is evaluated for the percentage damage caused to the plant. The biological activities are shown in the following table on a five point scale (5=80-100%; 4=60-79%; 3=40-59%; 2=20-39%; 1=0-19%).

[2] = tested on: Echinochloa crus-galli (ECHCG); assay: Further testing, post-emergence application; details: 1000 g/h, after 13 days
Procedure: as §1

[3] = tested on: Ipomoea hederacea (IPOHE); assay: Further testing, post-emergence application; details: 1000 g/h, after 13 days
Procedure: as §1

Lolium perenne (LOLPE) [4] = assay: Further testing, post-emergence application; details: 1000 g/h, after 13 days
Procedure: as §1

Setaria faberi (SETFA) [5] = assay: Further testing, post-emergence application; details: 1000 g/h, after 13 days
Procedure: as §1

Solanum nigrum (SOLNI) [6] = assay: Further testing, post-emergence application; details: 1000 g/h, after 13 days
Procedure: as §1

[7] = tested on: Amaranthus retoflexus (AMARE); assay: Further testing, pre-emergence application; details: 1000 g/h, after 13 days
Procedure: as §1

[8] = tested on: Echinochloa crus-galli (ECHCG); assay: Further testing, pre-emergence application; details: 1000 g/h, after 13 days
Procedure: as §1

[9] = tested on: Ipomoea hederacea (IPOHE); assay: Further testing, pre-emergence application; details: 1000 g/h, after 13 days
Procedure: as §1

Lolium perenne (LOLPE) [10] = assay: Further testing, pre-emergence application; details: 1000 g/h, after 13 days
Procedure: as §1

Setaria faberi (SETFA) [11] = assay: Further testing, pre-emergence application; details: 1000 g/h, after 13 days
Procedure: as §1

Solanum nigrum (SOLNI) [12] = assay: Further testing, pre-emergence application; details: 1000 g/h, after 13 days
Procedure: as §1

[13] = tested on: Alopecurus myosuroides (ALOMY); assay: Comparative testing, glasshouse herbicide test, spray one day after sowing
Procedure: (§2) Seeds of a variety of test species are sown in standard soil in pots. After cultivation for one day under controlled conditions in a glasshouse (at 24/16° C., day/night; 14 hours light; 65% humidity), an aqueous spray solution derived from the formulation of the technical active ingredient in 0.6 ml acetone and 45 ml formulation solution containing 10.6% Emulsogen EL (Registry number 61791-12-6), 42.2% N-methyl pyrrolidone, 42.2% dipropylene glycol monomethyl ether (CAS RN 34590-94-8) and 0.2% X-77 (CAS RN 11097-66-8) is applied.
(§3) The test plants are then grown in a glasshouse under controlled conditions in a glasshouse (at 24/16° C., day/night; 14 hours light; 65% humidity) and watered twice daily. After 21 days, the test is evaluated (100=total damage to plant; 0=no damage to plant). Test plants (weed species) include: Alopecurus myosuroides (ALOMY), Bidens pilosa (BIDPI), Euphorbia heterophylla (EPHHL), Lolium perenne (LOLPE), Panicum milaceum (PANMI), Sida spinosa (SIDSP) and Stellaria media STEME).

Bidens pilosa (BIDPI) = assay: as above
Procedure: as §2, §3

[14] = tested on: Euphorbia heterophylla (EPHHL); assay: as above
Procedure: as §2, §3

Lolium perenne (LOLPE) [15] = assay: as above
Procedure: as §2, §3

Panicum milaceum (PANMI) = assay: as above
Procedure: as §2, §3

Sida spinosa (SIDSP) = assay: as above
Procedure: as §2, §3

Stellaria media (STEME) = assay: as above
Procedure: as §2, §3

[16] = Rate 125, evaluated after 21 days
[17] = Rate 250, evaluated after 21 days

Structure (SMILES) | percentage damage caused to the plant, five point scale [1] | percentage damage caused to the plant, five point scale [2] | percentage damage caused to the plant, five point scale [3] | percentage damage caused to the plant, five point scale (Lolium perenne (LOLPE) [4]) | percentage damage caused to the plant, five point scale (Setaria faberi (SETFA) [5]) | percentage damage caused to the plant, five point scale (Solanum nigrum (SOLNI) [6]) | percentage damage caused to the plant, five point scale [7] | percentage damage caused to the plant, five point scale [8] | percentage damage caused to the plant, five point scale [9] | percentage damage caused to the plant, five point scale (Lolium perenne (LOLPE) [10]) | percentage damage caused to the plant, five point scale (Setaria faberi (SETFA) [11]) | percentage damage caused to the plant, five point scale (Solanum nigrum (SOLNI) [12]) | further results
CCn1nnnc1NC(=O)c1nn(C)c(=O)c(C2CCCCC2)c1Cl [Compound 1.002] | 5 (5=80-100%) | 5 (5=80-100%) | 5 (5=80-100%) | 5 (5=80-100%) | 5 (5=80-100%) | 5 (5=80-100%) | 5 (5=80-100%) | 5 (5=80-100%) | 5 (5=80-100%) | 5 (5=80-100%) | 5 (5=80-100%) | 5 (5=80-100%) | 
CCCn1nnnc1NC(=O)c1nn(C)c(=O)c(C2CCCCC2)c1Cl [Compound 1.003] | 5 (5=80-100%) | 5 (5=80-100%) | 5 (5=80-100%) | 4 (4=60-79%) | 5 (5=80-100%) | 5 (5=80-100%) | 5 (5=80-100%) | 5 (5=80-100%) | 5 (5=80-100%) | 5 (5=80-100%) | 5 (5=80-100%) | 5 (5=80-100%) | 
Cn1nnnc1NC(=O)c1nn(C)c(=O)c(C2CCCC2)c1Cl [Compound 1.005] | 5 (5=80-100%) | 5 (5=80-100%) | 5 (5=80-100%) | 5 (5=80-100%) | 5 (5=80-100%) | 5 (5=80-100%) | 5 (5=80-100%) | 5 (5=80-100%) | 5 (5=80-100%) | 5 (5=80-100%) | 5 (5=80-100%) | 5 (5=80-100%) | 
CCCn1nnnc1NC(=O)c1nn(C)c(=O)c(C2CCCC2)c1Cl [Compound 1.006] | 5 (5=80-100%) | 5 (5=80-100%) | 5 (5=80-100%) | 5 (5=80-100%) | 5 (5=80-100%) | 5 (5=80-100%) | 5 (5=80-100%) | 5 (5=80-100%) | 4 (4=60-79%) | 5 (5=80-100%) | 5 (5=80-100%) | 5 (5=80-100%) | 
Cn1nnnc1NC(=O)c1nn(C)c(=O)c(C2CCC(C)(C)CC2)c1Cl [Compound 1.017] | 5 (5=80-100%) | 5 (5=80-100%) | 5 (5=80-100%) | 5 (5=80-100%) | 5 (5=80-100%) | 5 (5=80-100%) | 5 (5=80-100%) | 5 (5=80-100%) | 4 (4=60-79%) | 5 (5=80-100%) | 5 (5=80-100%) | 5 (5=80-100%) | 
CC1CCC(c2c(Cl)c(C(=O)Nc3nnnn3C)nn(C)c2=O)CC1 (centres unmarked) [Compound 1.022] | 5 (5=80-100%) | 5 (5=80-100%) | 5 (5=80-100%) | 5 (5=80-100%) | 5 (5=80-100%) | 5 (5=80-100%) | 5 (5=80-100%) | 5 (5=80-100%) | 5 (5=80-100%) | 5 (5=80-100%) | 5 (5=80-100%) | 5 (5=80-100%) | 
Cn1nnnc1NC(=O)c1nn(C)c(=O)c(C2CCCCC2)c1Cl [Compound 1.030] | 5 (5=80-100%) | 5 (5=80-100%) | 4 (4=60-79%) | 5 (5=80-100%) | 5 (5=80-100%) | 5 (5=80-100%) | 5 (5=80-100%) | 5 (5=80-100%) | 2 (2=20-39%) | 5 (5=80-100%) | 5 (5=80-100%) | 5 (5=80-100%) | 
Cn1nnnc1NC(=O)c1nn(C)c(=O)c(C2CCCCC2)c1Cl [Compound 1.031] | 5 (5=80-100%) | 4 (4=60-79%) | 4 (4=60-79%) | 4 (4=60-79%) | 5 (5=80-100%) | 5 (5=80-100%) | 5 (5=80-100%) | 5 (5=80-100%) | 4 (4=60-79%) | 3 (3=40-59%) | 4 (4=60-79%) | 5 (5=80-100%) | 
Cn1nc(C(=O)C2C(=O)CCCC2=O)c(Cl)c(C2CCCCC2)c1=O [Compound A, 2-(4-chloro-5-cyclohexyl-1-methyl-6-oxo-pyridazine-3-carbonyl)cyclohexane-1,3-dione, reference compound] |  |  |  |  |  |  |  |  |  |  |  |  | damage to plant (100=total damage to plant; 0=no damage to plant) [13, 16]: 0; damage to plant (100=total damage to plant; 0=no damage to plant) [13, 17]: 20; damage to plant (100=total damage to plant; 0=no damage to plant) (Bidens pilosa (BIDPI); [16]): 0; damage to plant (100=total damage to plant; 0=no damage to plant) (Bidens pilosa (BIDPI); [17]): 40; damage to plant (100=total damage to plant; 0=no damage to plant) [14, 16]: 0; damage to plant (100=total damage to plant; 0=no damage to plant) [14, 17]: 20; damage to plant (100=total damage to plant; 0=no damage to plant) (Lolium perenne (LOLPE) [15]; [16]): 10; damage to plant (100=total damage to plant; 0=no damage to plant) (Lolium perenne (LOLPE) [15]; [17]): 20; damage to plant (100=total damage to plant; 0=no damage to plant) (Panicum milaceum (PANMI); [16]): 0; damage to plant (100=total damage to plant; 0=no damage to plant) (Panicum milaceum (PANMI); [17]): 0; damage to plant (100=total damage to plant; 0=no damage to plant) (Sida spinosa (SIDSP); [16]): 0; damage to plant (100=total damage to plant; 0=no damage to plant) (Sida spinosa (SIDSP); [17]): 0; damage to plant (100=total damage to plant; 0=no damage to plant) (Stellaria media (STEME); [16]): 50; damage to plant (100=total damage to plant; 0=no damage to plant) (Stellaria media (STEME); [17]): 60
